Test results taken from patent US20230413824A1, “AGROCHEMICAL COMPOSITION COMPRISING 3-SUBSTITUTED PHENYLAMIDINE COMPOUNDS AND USE THEREOF” (PI INDUSTRIES LIMITED, priority 2020, published 2023).
Several values for one entry are separate records, joined by “and”; a condition that tells them apart may be missing. Equal entries are not always repeated. Where two headings read alike, the source gives them in different places.

Key:
Assay type in all cases: in vivo
Botrytis cinerea = Botrytis cinerea test in tomato (preventive, glasshouse); details: single compound
Alternaria solani = Alternaria solani test in tomato (preventive, glasshouse)
Pyricularia oryzae = assay: whole plant or invertebrate; details: Pyricularia oryzae, read-out: Observed Efficacy
Phakopsora pachyrhizi = Phakopsora pachyrhizi test in soybean (preventive, glasshouse); details: single compound
Septoria nodorum = assay: Parastagonospora nodorum/Septoria nodorum/Stagnospora nodorum test in wheat (preventive, glasshouse); details: single compound
Experimental: The single compounds or compound combinations were dissolved in 2% DMSO/Acetone and then mixed with water containing emulsifier to a calibrated spray volume of 50 mL. The spray solutions were poured into spray bottles for further applications.
To test the preventive activity of compounds, healthy young wheat plants, raised in the greenhouse, were sprayed with the single compound or mixture preparation at the stated application rates inside the spray cabinets using hollow cone nozzles. One day after treatment, the plants were inoculated with a suspension containing 2.8×10^6 Stagnospora nodorum inoculum. The inoculated plants were then kept in a greenhouse chamber at 22-25° C. temperature and 90-100% relative humidity for disease expression.
A visual assessment of the performance of the compounds and respective compound combinations was carried out by rating the disease severity (0-100% scale) on treated plants 3, 7 and 10 days after application. Efficacy (% control) of the compounds was calculated by comparing the disease rating in the treatment with the one of the untreated control. The compounds were also assessed for their plant compatibility by recording symptoms like necrosis, chlorosis & stunting. The results are shown for the compound of formula (I-1) to (I-5) in Table E1-E5.

Erysiphe cichoracearum = Erysiphe cichoracearum test in cucumber (preventive, glasshouse); details: single compound
[1] = Botrytis cinerea, Conc. 0.05 ppm, preventive spray on tomato, % control vs untreated, read-out: Observed Efficacy (%)
[2] = Botrytis cinerea, Conc. 0.1 ppm, preventive spray on tomato, % control vs untreated, read-out: Observed Efficacy (%)
[3] = Table F4, Conc. 0.05 ppm, Botrytis cinerea in tomato, preventive
[4] = Table F4, Conc. 0.1 ppm, Botrytis cinerea in tomato, preventive
[5] = Alternaria solani, single compound, 0.05 ppm, preventive spray, read-out: Observed Efficacy (%)
[6] = Alternaria solani, single compound, 0.1 ppm, preventive spray, read-out: Observed Efficacy (%)
[7] = Table B4, single compound, Conc. 0.1 ppm, preventive
[8] = single compound, 0.05 ppm, preventive
[9] = single compound, 0.1 ppm, preventive
[10] = Phakopsora pachyrhizi, 0.1 ppm, preventive spray on soybean, read-out: Observed Efficacy (%)
[11] = Phakopsora pachyrhizi, Conc. 0.05 ppm, soybean, preventive, Table D4, read-out: Observed Efficacy (%)
[12] = Conc. 0.1 ppm, soybean, preventive, Table D4
[13] = Conc. 0.1 ppm, soybean, preventive, Table D5
[14] = Parastagonospora nodorum, 0.1 ppm, read-out: Observed Efficacy (%)
[15] = Table B3, single compound, Conc. 0.1 ppm, preventive
[16] = Parastagonospora nodorum, 0.05 ppm, read-out: Observed Efficacy (%)
[17] = Conc. 0.1 ppm, preventive spray on tomato, % control vs untreated
[18] = Table B3, single compound, Conc. 0.05 ppm, preventive
[19] = Table B4, single compound, Conc. 0.05 ppm, preventive
[20] = single compound, 0.05 ppm, preventive spray
[21] = single compound, 0.1 ppm, preventive spray
[22] = single compound, Conc. 0.05 ppm, preventive spray
[23] = 0.05 ppm, preventive spray on soybean
[24] = 0.1 ppm, preventive spray on soybean
[25] = Conc. 0.05 ppm, soybean, preventive, Table D4
[26] = Phakopsora pachyrhizi, 0.05 ppm, preventive spray on soybean, read-out: Observed Efficacy (%)
[27] = Conc. 0.05 ppm, soybean, preventive, Table D5
[28] = Table F5, Conc. 0.05 ppm, Botrytis cinerea in tomato, preventive
[29] = Table F5, Conc. 0.1 ppm, Botrytis cinerea in tomato, preventive
[30] = Conc. 0.05 ppm, preventive spray on tomato, % control vs untreated
[31] = 0.05 ppm, preventive spray on cucumber
[32] = 0.1 ppm, preventive spray on cucumber

Molecule	pest or weed control at 0.05 ppm (Botrytis cinerea; [1]) [%]	pest or weed control at 0.1 ppm (Botrytis cinerea; [2]) [%]	Observed Efficacy (%) (Botrytis cinerea; [3])	Observed Efficacy (%) (Botrytis cinerea; [4])	pest or weed control at 0.05 ppm (Alternaria solani; [5]) [%]	pest or weed control at 0.1 ppm (Alternaria solani; [6]) [%]	Observed Efficacy (%) (Alternaria solani; [7])	Observed Efficacy (%) (Alternaria solani; [8])	Observed Efficacy (%) (Alternaria solani; [9])	pest or weed control at 0.1 ppm (Phakopsora pachyrhizi; [10]) [%]	Observed Efficacy (%) (Phakopsora pachyrhizi; [12])	Observed Efficacy (%) (Phakopsora pachyrhizi; [13])	pest or weed control at 0.1 ppm (Septoria nodorum; [14]) [%]	Observed Efficacy (%) (Alternaria solani; [15])	Observed Efficacy (%) (Botrytis cinerea; [17])	Observed Efficacy (%) (Alternaria solani; [18])	Observed Efficacy (%) (Alternaria solani; [19])	Observed Efficacy (%) (Alternaria solani; [20])	Observed Efficacy (%) (Alternaria solani; [21])	Observed Efficacy (%) (Phakopsora pachyrhizi; [25])	further results
CC1COC(Cn2cncn2)(c2ccc(Oc3ccc(Cl)cc3)cc2Cl)O1 (stereo not shown) [Difenconazole, difenoconazole]	42	52	42	52	42	47	47	42	47	24	24	24	32	–	–	–	–	–	–	–	pest or weed control at 0.05 ppm (Alternaria solani; Alternaria solani, single compound, Conc. 0.05 ppm, preventive spray, read-out: Observed Efficacy): 42%; pest or weed control at 0.1 ppm (Alternaria solani; Alternaria solani, single compound, Conc. 0.1 ppm, preventive spray, read-out: Observed Efficacy): 47%; pest or weed control at 0.05 ppm (Pyricularia oryzae): 24%; pest or weed control at 0.1 ppm (Pyricularia oryzae): 26%; pest or weed control at 0.05 ppm (Phakopsora pachyrhizi; [11]): 17%
CON=C(C(=O)OC)c1ccccc1CON=C(C)c1cccc(C(F)(F)F)c1 [Trifloxystrobin, trifloxystrobin]	26	33	26	33	33	40	–	–	–	32	32	32	18	40	–	–	–	–	–	–	pest or weed control at 0.05 ppm (Pyricularia oryzae): 24%; pest or weed control at 0.1 ppm (Pyricularia oryzae): 32%; pest or weed control at 0.05 ppm (Phakopsora pachyrhizi; [11]): 22%; pest or weed control at 0.05 ppm (Septoria nodorum; [16]): 5%
Cn1cc(C(=O)Nc2ccc(F)cc2-c2ccc(Cl)c(Cl)c2)c(C(F)F)n1 [Bixafen, bixafen]	–	–	–	–	–	–	29	11	29	–	22	–	–	29	48	11	11	11	29	15	Observed Efficacy (Alternaria solani; [22]): 11%; Observed Efficacy (Alternaria solani; single compound, Conc. 0.1 ppm, preventive spray): 29%; Observed Efficacy (%) (Phakopsora pachyrhizi; [23]): 15%; Observed Efficacy (%) (Phakopsora pachyrhizi; [24]): 22%; Observed Efficacy (%) (Septoria nodorum; 0.05 ppm): 18%; Observed Efficacy (%) (Septoria nodorum; 0.1 ppm): 29%
CCN(C)C=Nc1cc(C)cc(Cc2ccccc2C)c1C [Compound (I-3), N′-(2,5-dimethyl-3-(2-methylbenzyl)phenyl)-N-ethyl-N-methylformimidamide]	–	–	–	–	–	–	–	–	–	–	–	–	–	–	–	–	–	–	–	–	pest or weed control at 1 ppm (Botrytis cinerea; Botrytis cinerea, Conc. 1 ppm, preventive spray on tomato, % control vs untreated, read-out: Observed Efficacy (%)): 57%; pest or weed control at 5 ppm (Botrytis cinerea; Botrytis cinerea, Conc. 5 ppm, preventive spray on tomato, % control vs untreated, read-out: Observed Efficacy (%)): 67%; pest or weed control at 20 ppm (Botrytis cinerea; Botrytis cinerea, Conc. 20 ppm, preventive spray on tomato, % control vs untreated, read-out: Observed Efficacy (%)): 77%; pest or weed control at 1 ppm (Erysiphe cichoracearum; Golovinomyces cichoracearum, 1 ppm, preventive spray on cucumber, read-out: Observed Efficacy (%)): 17%; pest or weed control at 5 ppm (Erysiphe cichoracearum; Golovinomyces cichoracearum, 5 ppm, preventive spray on cucumber, read-out: Observed Efficacy (%)): 27%; pest or weed control at 20 ppm (Erysiphe cichoracearum; Golovinomyces cichoracearum, 20 ppm, preventive spray on cucumber, read-out: Observed Efficacy (%)): 47%; pest or weed control at 1 ppm (Alternaria solani; Alternaria solani, Table B3, single compound, Conc. 1 ppm, preventive, read-out: Observed Efficacy (%)): 17%; pest or weed control at 5 ppm (Alternaria solani; Alternaria solani, Table B3, single compound, Conc. 5 ppm, preventive, read-out: Observed Efficacy (%)): 23%; pest or weed control at 20 ppm (Alternaria solani; Alternaria solani, Table B3, single compound, Conc. 20 ppm, preventive, read-out: Observed Efficacy (%)): 43%; pest or weed control at 0.0001 ppm (Phakopsora pachyrhizi; Phakopsora pachyrhizi, 0.0001 ppm, preventive spray on soybean, read-out: Observed Efficacy (%)): 47%; pest or weed control at 0.001 ppm (Phakopsora pachyrhizi; Phakopsora pachyrhizi, 0.001 ppm, preventive spray on soybean, read-out: Observed Efficacy (%)): 53%; pest or weed control at 0.01 ppm (Phakopsora pachyrhizi; Phakopsora pachyrhizi, 0.01 ppm, preventive spray on soybean, read-out: Observed Efficacy (%)): 65%; pest or weed control at 1 ppm (Septoria nodorum; Parastagonospora nodorum, 1 ppm, read-out: Observed Efficacy (%)): 13%; pest or weed control at 5 ppm (Septoria nodorum; Parastagonospora nodorum, 5 ppm, read-out: Observed Efficacy (%)): 27%; pest or weed control at 20 ppm (Septoria nodorum; Parastagonospora nodorum, 20 ppm, read-out: Observed Efficacy (%)): 40%
O=C(NCCc1ncc(C(F)(F)F)cc1Cl)c1ccccc1C(F)(F)F [Fluopyram]	38	45	38	45	26	35	35	26	35	10	10	10	21	35	–	26	26	–	–	7	pest or weed control at 0.05 ppm (Erysiphe cichoracearum; Golovinomyces cichoracearum, 0.05 ppm, preventive spray on cucumber, read-out: Observed Efficacy (%)): 32%; pest or weed control at 0.1 ppm (Erysiphe cichoracearum; Golovinomyces cichoracearum, 0.1 ppm, preventive spray on cucumber, read-out: Observed Efficacy (%)): 39%; pest or weed control at 0.05 ppm (Phakopsora pachyrhizi; [26]): 7%; Observed Efficacy (%) (Phakopsora pachyrhizi; [27]): 7%; pest or weed control at 0.05 ppm (Septoria nodorum; [16]): 8%
propineb	–	–	15	22	–	–	31	20	–	–	33	33	–	–	22	–	20	20	31	20	Observed Efficacy (%) (Botrytis cinerea; [28]): 15%; Observed Efficacy (%) (Botrytis cinerea; [29]): 22%; Observed Efficacy (%) (Botrytis cinerea; [30]): 15%; Observed Efficacy (%) (Erysiphe cichoracearum; 0.05 ppm, cucumber, preventive): 14%; Observed Efficacy (%) (Erysiphe cichoracearum; [31]): 14%; Observed Efficacy (%) (Erysiphe cichoracearum; 0.1 ppm, cucumber, preventive): 43%; Observed Efficacy (%) (Erysiphe cichoracearum; [32]): 43%; Observed Efficacy (Alternaria solani; [22]): 20%; Observed Efficacy (%) (Phakopsora pachyrhizi; [23]): 20%; Observed Efficacy (%) (Phakopsora pachyrhizi; [24]): 33%; Observed Efficacy (%) (Phakopsora pachyrhizi; [27]): 20%; Observed Efficacy (%) (Septoria nodorum; 0.05 ppm): 12%; Observed Efficacy (%) (Septoria nodorum; 0.1 ppm): 24%
O=[N+]([O-])c1cc(C(F)(F)F)c(Cl)c([N+](=O)[O-])c1Nc1ncc(C(F)(F)F)cc1Cl [Fluazinam]	29	38	29	38	7	16	16	7	16	10	10	10	21	16	–	7	7	–	–	2	pest or weed control at 0.05 ppm (Erysiphe cichoracearum; Golovinomyces cichoracearum, 0.05 ppm, cucumber, preventive, read-out: Observed Efficacy (%)): 11%; pest or weed control at 0.1 ppm (Erysiphe cichoracearum; Golovinomyces cichoracearum, 0.1 ppm, cucumber, preventive, read-out: Observed Efficacy (%)): 18%; Observed Efficacy (%) (Erysiphe cichoracearum; [31]): 11%; Observed Efficacy (%) (Erysiphe cichoracearum; [32]): 18%; pest or weed control at 0.05 ppm (Phakopsora pachyrhizi; [26]): 2%; Observed Efficacy (%) (Phakopsora pachyrhizi; [27]): 2%
C[C@@H]1CC(C)(C)c2cccc(NC(=O)c3cn(C)nc3C(F)F)c21 [Inpyrfluxam]	–	–	25	38	–	–	23	–	–	–	30	–	–	–	38	–	14	14	23	18	Observed Efficacy (%) (Botrytis cinerea; [28]): 25%; Observed Efficacy (%) (Botrytis cinerea; [29]): 38%; Observed Efficacy (%) (Botrytis cinerea; [30]): 35% and 25%; Observed Efficacy (%) (Erysiphe cichoracearum; 0.05 ppm, cucumber, preventive): 29%; Observed Efficacy (%) (Erysiphe cichoracearum; [31]): 29%; Observed Efficacy (%) (Erysiphe cichoracearum; 0.1 ppm, cucumber, preventive): 38%; Observed Efficacy (%) (Erysiphe cichoracearum; [32]): 38%; Observed Efficacy (%) (Phakopsora pachyrhizi; [23]): 18%; Observed Efficacy (%) (Phakopsora pachyrhizi; [24]): 30%; Observed Efficacy (%) (Septoria nodorum; 0.05 ppm): 12%; Observed Efficacy (%) (Septoria nodorum; 0.1 ppm): 29%
